{"source": "paper PMC12859765", "about": "“Phosphatidylcholine with C26:0 moiety, a precursor of a diagnostic marker for X-ALD, is synthesized by LPLAT10/LPEAT2” (Journal of Lipid Research, 2025)", "target": "T1, LPLAT8/LPCAT1 (Homo sapiens, UniProt Q8NF37)", "T1 construct": "transiently expressed in HEK 293T; 100,000 g membrane fraction", "T1 sequence (Q8NF37 1-534)": "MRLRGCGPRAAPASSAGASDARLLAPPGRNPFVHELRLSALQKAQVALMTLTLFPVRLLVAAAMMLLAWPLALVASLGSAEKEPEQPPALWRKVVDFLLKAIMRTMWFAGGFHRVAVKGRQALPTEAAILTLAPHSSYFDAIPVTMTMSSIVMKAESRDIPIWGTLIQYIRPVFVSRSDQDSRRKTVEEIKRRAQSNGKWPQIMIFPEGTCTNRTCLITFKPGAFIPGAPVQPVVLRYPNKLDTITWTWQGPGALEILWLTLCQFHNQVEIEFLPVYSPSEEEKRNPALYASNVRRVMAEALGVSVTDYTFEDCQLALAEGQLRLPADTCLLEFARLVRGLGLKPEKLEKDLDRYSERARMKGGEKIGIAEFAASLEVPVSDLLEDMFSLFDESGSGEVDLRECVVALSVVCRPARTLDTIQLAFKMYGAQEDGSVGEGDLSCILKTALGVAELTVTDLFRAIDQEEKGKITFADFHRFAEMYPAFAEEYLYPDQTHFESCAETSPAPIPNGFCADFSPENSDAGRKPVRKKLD", "assay": "LC-MS/MS acyltransferase assay, membrane fraction", "type": "biochemical", "conditions": "pH 7.4, 37 °C"}
{"smiles": "CCCCCCCCCCCCCCCC(=O)O[C@H](CO)COP(=O)([O-])OCC[N+](C)(C)C", "note": "[2-16:0-d31-LPC]", "values": [{"measurement": "LC-MS/MS acyltransferase assay, membrane fraction", "setting": "donor C26:0-CoA 10 µM, LPC 20 µM, labelled compound", "value": "C26:0-CoA transfer activity was not significantly different between 2-acyl-LPC and 1-acyl-LPC"}]}
{"smiles": "CCCCCCCCCCCCCCCCCCCCCCCCCC(=O)SCCNC(=O)CCNC(=O)[C@H](O)C(C)(C)COP(=O)(O)OP(=O)(O)OC[C@H]1O[C@@H](n2cnc3c(N)ncnc32)[C@H](O)[C@@H]1OP(=O)(O)O", "note": "[C26:0-CoA]", "values": [{"measurement": "LC-MS/MS acyltransferase assay, membrane fraction", "setting": "10 µM acyl-CoA, acceptor 2-16:0-d31-LPC 20 µM", "value": "LPLAT8/LPCAT1, which has very high homology with LPLAT10 in terms of amino acid sequence, showed slight activity"}]}
